The assay concerns the target T1, Endothiapepsin (Cryphonectria parasitica, UniProt P11838).
T1 sequence (P11838 whole entry): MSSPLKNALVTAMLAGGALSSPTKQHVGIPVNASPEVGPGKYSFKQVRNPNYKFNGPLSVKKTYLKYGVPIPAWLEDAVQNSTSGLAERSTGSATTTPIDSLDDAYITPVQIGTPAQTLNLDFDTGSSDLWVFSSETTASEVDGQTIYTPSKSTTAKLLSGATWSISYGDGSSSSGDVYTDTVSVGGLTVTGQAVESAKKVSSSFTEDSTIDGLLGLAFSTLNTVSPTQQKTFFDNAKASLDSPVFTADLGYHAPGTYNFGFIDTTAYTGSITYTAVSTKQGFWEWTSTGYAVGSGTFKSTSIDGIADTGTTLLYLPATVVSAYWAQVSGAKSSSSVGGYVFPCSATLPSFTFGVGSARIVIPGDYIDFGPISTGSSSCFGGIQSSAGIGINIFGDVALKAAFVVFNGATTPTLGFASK
Nature of the assay: Inhibition of Cryphonectria parasitica endothiapepsin using 2-aminobenzoyl-Thr-Ile-Nle-Phe(p-NO2)-Gln-Arg-NH2 as substrate assessed as hydrolysis of substrate into 2-aminobenzoyl-Thr-Ile-Nle and Phe(p-NO2)-GLn-Arg-NH2 by fluorescence-based spectrophotometric analysis.

Each structure is given as a SMILES string. pIC50: −log10 of the molar value.

For `N[C@H](C(=O)N/N=C/C1CCCC1)c1ccc(C(F)(F)F)cc1` (mixture of isomers), the negative-log IC50 (pIC50) was 4.07. Turning to `N[C@H](C(=O)N/N=C/c1ccccc1)c1ccc(C(F)(F)F)cc1` (mixture of isomers), the pIC50 was 3.68.

What is called pIC50 is −log10 of the IC50, conventionally taken in molar units.
